This note sets out measurements from patent US7928137B2, “Meta-benzamidine derivatives as serine protease inhibitors” (Tularik Limited, priority 1997, dated 2011).

Assay [1] relates to plasma. The assay is described as follows: Kaolin Activated Partial Thromboplastin Time Test (APTT). The class given is biochemical. To be noted: 37°. The method, then:
Kaolin Activated Partial Thromboplastin Time Test Protocol
(§1) Venous blood was collected into 3.2% (0.109 m) trisodium citrate vacutainer tubes at 1 volume of anticoagulant to nine volumes of blood.
(§2) The blood cells were separated by centrifugation at 700 g for ten minutes to yield plasma, which was frozen at […] until required.
(§3) To perform the test, 100 μl of plasma was pipetted into in a glass test tube, 1 μl of test compound in DMSO was added, and allowed to warm to 37° over two minutes.
100 μl of APTT reagent resuspended in Owren's buffer (Thrombosis Reference Centre University of Manchester, withington Hospital, Manchester) was added, mixed thoroughly, and 100 μl of prewarmed kaolin suspension in Owren's buffer added.
This mixture was incubated for ten minutes at 37°, with regular gentle mixing by tilting through a 90° angle, three times sequentially at one minute intervals to maintain the kaolin in suspension.
After ten minutes 100 μl of 25 mM calcium chloride solution was added, the suspension redispersed by mixing as above and the time to clot formation recorded.
(§4) Data from a series of observations and test compound concentrations are analysed by a SAS statistical analysis program and a CT2 (Concentration required to double clotting time) for each compound is generated.

In assay [2] the target is thrombin (Homo sapiens, UniProt P00734). Kind of assay: Enzyme inhibition assay, thrombin (chromogenic substrate pefachrome-TH). The conditions noted are these: for thrombin pKi: room temperature, 0.1M phosphate buffer, pH7.4.
Assay [3] has as its system plasma. Kind of assay: Partial Thromboplastin Time Test (PT, tissue thromboplastin reagent). The conditions noted are these: Manchester (tissue thromboplasin) reagent, 37°. Type of assay: biochemical. The procedure:
Partial Thromboplastin Time Test Protocol
as §1, §2, §3
100 μl of warm (37°) Manchester (tissue thromboplasin) reagent (Helena Biosciences, UK) was added, allowed to equilibrate for sixty seconds. 100 μl of warm (37°) 25 mM calcium chloride solution was added to initiate clotting.
The test tube was tilted three times through a 90° angle every five seconds to mix the reagents and the time to clot formation recorded.
as §4

The target in assay [4] is human factor Xa (Homo sapiens, UniProt P00742). The assay is described as follows: Enzyme inhibition assay, factor Xa (chromogenic substrate pefachrome-FXA). To be noted: for FXa pKi: room temperature, 0.1M phosphate buffer, pH7.4.
Chain of human factor Xa (P00742 235-488 limits assumed): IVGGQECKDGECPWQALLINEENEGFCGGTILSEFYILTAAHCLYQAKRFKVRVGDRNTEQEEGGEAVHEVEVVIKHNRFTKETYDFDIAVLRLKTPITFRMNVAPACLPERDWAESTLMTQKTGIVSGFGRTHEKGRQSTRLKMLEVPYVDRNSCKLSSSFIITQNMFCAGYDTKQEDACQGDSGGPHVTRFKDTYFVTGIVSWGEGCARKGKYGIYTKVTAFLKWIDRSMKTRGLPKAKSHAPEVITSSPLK
Chain of human factor Xa (P00742 41-179 partner limits assumed): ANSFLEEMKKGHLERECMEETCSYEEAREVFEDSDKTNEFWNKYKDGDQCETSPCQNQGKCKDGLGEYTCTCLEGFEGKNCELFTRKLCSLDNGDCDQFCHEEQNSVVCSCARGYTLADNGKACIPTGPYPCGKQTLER
The target in assay [5] is trypsin (Homo sapiens, UniProt P07477). The assay is described as follows: Enzyme inhibition assay, trypsin (chromogenic substrate pefachrome-TRY). To be noted: for trypsin pKi: room temperature, 0.1M phosphate buffer, pH7.4.

Regarding “3-Amidino-benzoyl-D-phenylglycinyl-D-2-naphthylalanine amide [Example 36]”, in assay [1], the “APTT CT2 (Concentration required to double clotting time)” value (from here on “APTT CT2”) came to 9.4 µM. The “thrombin pKi” value in assay [2] stood at 6.24. In assay [3], the “PT CT2 (Concentration required to double clotting time)” value (“PT CT2” for short) came to 9 µM. The “FXa pKi” value in assay [4] is reported as 7.12. Besides, in assay [5], the “trypsin pKi” value is listed as 6.16.
For “3-Amidino-benzoyl-D-phenylglycinyl-D-2-naphthylalaninyl N-methylglycine [Example 32]”, in that order: 7.4 µM, 6.09, 5.6 µM, 7.39 and 5.65.
For “3-Amidino-benzoyl-D-phenylglycinyl-D-2-naphthylalaninyl-D-proline [Example 33]”, the “thrombin pKi” value in assay [2] is 6.14. Also, in assay [3], the “PT CT2” value was found to be 7.1 µM. Also, in assay [4], the “FXa pKi” value worked out at 7.50. For the same compound, in assay [5], the “trypsin pKi” value stood at 6.39.
For “3-Amidino-benzoyl-D-phenylglycinyl-D-2-naphthylalaninyl-glycine [Example 31]”, in assay [1], the “APTT CT2” value was 3.7 µM. Further, in assay [2], the “thrombin pKi” value came out at 6.98. Also, the “PT CT2” value in assay [3] was 3.2 µM. The “FXa pKi” value in assay [4] is 6.80. Besides, the “trypsin pKi” value in assay [5] is 5.56.
For “3-Amidino-benzoyl-D-phenylglycinyl-D-phenylalanine-N-pyrrolidinamide [Example 66]”, in that order: 4.5 µM, 6.66, 4.6 µM, 6.94 and 6.55.
As a reminder, the Ki is a measure of affinity in units of concentration, obtained from inhibition or displacement. Low readings indicate higher affinity, high ones lower affinity. Turning to `N=C(N)c1ccc(N)c(C(=O)N[C@@H](C(=O)NCC2CCC(CN)CC2)c2ccccc2)c1` (mixture of isomers) [Example 89, 2-Amino-5-amidinobenzoyl-D-phenylglycine-4-amlnomethylcyclohexyl methylamide], the Ki is 1.02 µM in assay [2], 0.0141 µM in assay [4] and 0.245 µM in assay [5].
`N=C(N)c1cccc(C(=O)NC(C(=O)NCC2CCC(CN)CC2)c2ccc3ccccc3c2)c1` (racemic) [Example 12, 3-Amidino-benzoyl-DL-2-naphthylglycine 4-aminomethylcyclohexyl methylamide]: the “APTT CT2” value in assay [1] is 6.5 µM. The Ki in assay [2] is 5.37 µM; in assay [4] it was 0.407 µM; in assay [5] it was 0.794 µM. In addition, the “PT CT2” value in assay [3] was found to be 3.4 µM.
In the same order, the values of `CC(C)[C@@H](NC(=O)[C@H](NC(=O)c1cccc(C(=N)N)c1)c1ccccc1)C(N)=O` [Example 37, 3-Amidino-benzoyl-D-phenylglycinyl-D-valine amide] are 36 µM, 17 µM, 0.162 µM, 1.45 µM and 15 µM.
For the compound `N=C(N)c1cccc(C(=O)N[C@@H](C(=O)N2CCC(C(=O)c3ccccc3)CC2)c2ccccc2)c1` [Example 63, 3-Amidino-benzoyl-D-phenylglycine-4-benzoyl piperidinamide], the values for the inhibition constant (Ki) in assay [2] and in assay [5] were 1.1 µM and 0.288 µM, respectively. Moreover, the “PT CT2” value in assay [3] came out at 3.7 µM.
With `Cc1ccc(CNC(=O)[C@H](NC(=O)c2cccc(C(=N)N)c2)c2ccccc2)cc1` [Example 64, 3-Amidino-benzoyl-D-phenylglycine-4-methylbenzylamide], the “APTT CT2” value in assay [1] was 7.6 µM. In addition, the “thrombin pKi” value in assay [2] turned out to be 5.72. Also, in assay [3], the “PT CT2” value amounted to 8.3 µM. In addition, the Ki was 0.0871 µM in assay [4] and 1.23 µM in assay [5].
Take `N=C(N)c1cccc(C(=O)N[C@@H](C(=O)NCc2cccc3ccccc23)c2ccccc2)c1` [Example 65, 3-Amidino-benzoyl-D-phenylglycine-1-naphthylmethylamide]: the Ki is 1.17 µM in assay [2], 0.0646 µM in assay [4] and 1.62 µM in assay [5].
As to `N=C(N)c1cccc(C(=O)N[C@@H](C(=O)NC2C3CC4CC(C3)CC2C4)c2ccccc2)c1` (stereo partly drawn) [Example 68, 3-Amidino-benzoyl-D-phenylglycine-2adamantylamide], the figures for the inhibition constant (Ki) in assay [2], in assay [4] and in assay [5] were 4.79 µM, 0.0977 µM and 2.57 µM, respectively. Besides, the “PT CT2” value in assay [3] came out at 17 µM.
Consider `C[C@@H](NC(=O)[C@H](NC(=O)c1cccc(C(=N)N)c1)c1ccccc1)c1cccc2ccccc12` [Example 80, 3-Amidino-benzoyl-D-phenylglycine-R-1-(1-naphthyl)ethylamide], for which the figures for the Ki in assay [2], in assay [4] and in assay [5] were 6.92 µM, 0.269 µM and 1.86 µM, respectively.
Consider `CC(=N)N1CCC(CCOC(=O)[C@H](NC(=O)c2cccc(C(=N)N)c2)c2ccccc2)CC1` [Example 84, 3-Amidino-benzoyl-D-phenylglycine-2-(N-acetimino-4-piperidinyl) ethyl ester], for which, in assay [1], the “APTT CT2” value amounted to 5.8 µM. Also, the Ki in assay [2] is 9.12 µM; in assay [4] it was 0.0105 µM; in assay [5] it was 2.45 µM. Moreover, in assay [3], the “PT CT2” value was 1.9 µM.
`N=C(N)c1cccc(C(=O)N[C@@H](C(=O)OCCC2CCN(C(=N)N)CC2)c2ccccc2)c1` [Example 87, 3-Amidino-benzoyl-D-phenylglycine-2-(N-amidino-4-piperidinyl) ethyl ester]: in assay [1], the “APTT CT2” value is 14 µM. In assay [2], the “thrombin pKi” value was 5.10. For the same compound, the “PT CT2” value in assay [3] amounted to 4.2 µM. For the same compound, the values for the Ki in assay [4] and in assay [5] were 0.024 µM and 1.29 µM, respectively.
